{"source": "paper PMC12018770", "about": "“DEAD‐Box Helicase 6 Blockade in Brain‐Derived Aβ Oligomers From Alzheimer's Disease Patients Attenuates Neurotoxicity” (MedComm, 2025)", "molecules": {"B1": {"name": "lecanemab (antibody, chains of the INN, looked up, V domains shown)", "VH": "EVQLVESGGGLVQPGGSLRLSCSASGFTFSSFGMHWVRQAPGKGLEWVAYISSGSSTIYYGDTVKGRFTISRDNAKNSLFLQMSSLRAEDTAVYYCAREGGYYYGRSYYTMDYWGQGTTVTVSS", "VL": "DVVMTQSPLSLPVTPGAPASISCRSSQSIVHSNGNTYLEWYLQKPGQSPKLLIYKVSNRFSGVPDRFSGSGSGTDFTLRISRVEAEDVGIYYCFQGSHVPPTFGPGTKLEIK"}, "B2": {"name": "junction plakoglobin (protein)", "chain": "MEVMNLMEQPIKVTEWQQTYTYDSGIHSGANTCVPSVSSKGIMEEDEACGRQYTLKKTTTYTQGVPPSQGDLEYQMSTTARAKRVREAMCPGVSGEDSSLLLATQVEGQATNLQRLAEPSQLLKSAIVHLINYQDDAELATRALPELTKLLNDEDPVVVTKAAMIVNQLSKKEASRRALMGSPQLVAAVVRTMQNTSDLDTARCTTSILHNLSHHREGLLAIFKSGGIPALVRMLSSPVESVLFYAITTLHNLLLYQEGAKMAVRLADGLQKMVPLLNKNNPKFLAITTDCLQLLAYGNQESKLIILANGGPQALVQIMRNYSYEKLLWTTSRVLKVLSVCPSNKPAIVEAGGMQALGKHLTSNSPRLVQNCLWTLRNLSDVATKQEGLESVLKILVNQLSVDDVNVLTCATGTLSNLTCNNSKNKTLVTQNSGVEALIHAILRAGDKDDITEPAVCALRHLTSRHPEAEMAQNSVRLNYGIPAIVKLLNQPNQWPLVKATIGLIRNLALCPANHAPLQEAAVIPRLVQLLVKAHQDAQRHVAAGTQQPYTDGVRMEEIVEGCTGALHILARDPMNRMEIFRLNTIPLFVQLLYSSVENIQRVAAGVLCELAQDKEAADAIDAEGASAPLMELLHSRNEGTATYAAAVLFRISEDKNPDYRKRVSVELTNSLFKHDPAAWEAAQSMIPINEPYGDDMDATYRPMYSSDVPLDPLEMHMDMDGDYPIDTYSDGLRPPYPTADHMLA"}}, "key": {"Aβ42 oligomers [1]": {"tested_on": "Aβ42 oligomers", "test": "Binding of biotin‐labeled short peptides to Aβ42 oligomers", "details": "biotin-labeled peptide probes; bands at 30 and 10 kDa for binders", "experimental": "We characterized the molecular mechanisms by which DDX6 influences Aβ oligomer neurotoxicity using real‐time quaking‐induced conversion (RT‐QuIC) to determine whether DDX6 promotes the formation of Aβ fibrillar plaques and oligomers. […] Next, we performed dot blotting assays (Figure 7D,E) on the four treatment groups using the A11 antibody. […] We also assessed the cytotoxic effects of the four treatment groups on HT‐22 cell cultures using CCK‐8 assays. […] Specific gray values were calculated using Total Lab 100 (Nonlinear Dynamics, Newcastle upon Tyne, UK).\n(A) Cell counting kit‐8 (CCK‐8) cytotoxicity assay (n = 3). […] Total Lab 100 analysis software was used to calculate the percentage of gray values for 157 polypeptide spots.\nThe Aβ42 peptide was obtained from Abcam (#ab120301, USA). Aβ42 was solubilized using 1 mM hexafluoroisopropanol (#105228; Sigma‐Aldrich, Germany) and evaporated overnight in a desiccator to form a dry film. The film was then dissolved in dimethyl sulfoxide (#D8418; Sigma‐Aldrich) to a concentration of 5 mM, mixed with phosphate‐buffered saline, and incubated for 72 h at 4°C. The GST‐DDX6 protein was synthesized by KMD Bioscience Biotech Co., Ltd. (Tianjin, China). The biotin‐labeled short peptide was synthesized by Hubei Qiangyao Biotechnology Co., Ltd. (Hubei, China)."}, "Aβ42 oligomers [2]": {"tested_on": "Aβ42 oligomers", "test": "Peptide chip microarray of DDX6 peptides (1–157) with Aβ42 oligomers", "details": "Aβ oligomers 2.0 µg/mL, overnight 4°C; ECL; > 30% indicates effective binding site; Total Lab 100"}, "[3]": {"tested_on": "human‐derived Aβ oligomers", "test": "Co-immunoprecipitation / Western blotting of protein-Aβ oligomer interaction in AD brain extracts", "type": "binding", "details": "IgG isotype control", "from_the_text": "After rigorous data analysis with SAINTexpress, four proteins (DDX6, DSP, JUP, and HRNR) were identified as potential Aβ oligomer‐binding partners. To validate these findings, we selected DSP and DDX6 as positive controls for co‐IP analysis; tau proteins were used as negative controls. Input samples, IP, co‐IP extracts, and IgG controls were adjusted to ensure equal amounts of protein for comparison. […] The IP enrichment effect was substantial for Aβ oligomers, DDX6, DSP, and tau proteins. In the co‐IP extracts for DDX6 and DSP, Aβ oligomers were detected at approximately 55 and 30 kDa, respectively (indicated by “ [drawing 1] ”). […] Isotype control IgG was used to exclude nonspecific binding (Figure 2A).\nA Co‐IP kit (Thermo Fisher Scientific; #26149, USA) was used for the assay. Antibodies (2 µg) were crosslinked to a reinforced AminoLink coupling resin (20 µL of beads) and immobilized on a Pierce spin column at room temperature. Protein extracts (1 mg) were added to the spin column and incubated overnight at 4°C with rotation. The spin column was then transferred to a new collection tube, and 60 µL of elution buffer (pH 2.8, containing tertiary amine) was added. The column was centrifuged, and the eluate was analyzed to detect the presence of the target protein.\nProtein concentrations in the co‐IP extracts were measured using a bicinchoninic acid assay (#23225, Thermo Fisher Scientific, USA). For each sample, 20 µL of protein was loaded, with the following amounts of human‐derived Aβ oligomers (AD1–AD6) used: 1.8 µg, 2.0 µg, 1.9 µg, 1.6 µg, 2.0 µg, and 1.8 µg, respectively. Equivalent amounts of co‐IP extracts were loaded into the remaining lanes. A 5× loading buffer was added to the protein samples to achieve a final concentration of 1×, and the samples were incubated at 95°C for 5 min [44]. […]\nB. The PVDF membrane was probed with the Aβ oligomer antibody (A11), indicating enrichment of Aβ oligomers (post-IP) with bands observed at 55 kDa and 30 kDa. Aβ oligomers were detected in the co-IP products of DDX6 (indicated by “✸”). […]"}, "[4]": {"tested_on": "human‐derived Aβ oligomers", "test": "AP-MS with SAINTexpress scoring of binding to human‐derived Aβ oligomers", "details": "score 0 to 1; criteria SAINT score > 0.5 and fold change ≥ 2; AD1–AD6, n = 6", "from_the_text": "Not all identified proteins bind to Aβ oligomers. Therefore, we used the SAINTexpress statistical method to screen for proteins most likely to interact with human‐derived Aβ oligomers. SAINTexpress assigns probability scores to factors interacting with target proteins, providing a value between 0 and 1, where higher scores indicate a greater likelihood of interaction with Aβ oligomers. Based on the analyzed results, we plotted the fold change on the x‐axis and SAINT scores on the y‐axis, with each point representing a protein. Proteins meeting the criteria of a SAINT score > 0.5 and fold change ≥ 2 were considered the most likely to bind Aβ oligomers (highlighted in red). Through rigorous analysis, we identified four proteins as binding partners (Figure 1C): DDX6 (SAINT score = 0.5783), DSP (SAINT score = 0.6608), JUP (SAINT score = 0.5846), and HRNR (SAINT score = 0.5246).\nAn aliquot of each peptide mixture was loaded onto a trap column (in‐house‐fabricated column packed with a reversed‐phase ReproSil‐Pur C18‐AQ resin, 150 µm × 15 cm, C18, 3 µm, 100 Å, Dr. Maisch GmbH, Germany) connected to an analytical column (EASY‐Spray column, […] × 75 µm ID, PepMap RSLC C18, 2 µm, 100 Å, Thermo Scientific, USA) using the autosampler of an EASY‐nLC 1200 HPLC system (Thermo Fisher Scientific). The peptides were eluted using a gradient (solvent A: 0.1% formic acid in water; solvent B: 80% acetonitrile/0.1% formic acid in water; Sigma, Germany) directly into a Q Exactive Hybrid Quadrupole‐Orbitrap mass spectrometer (Thermo Fisher Scientific). The gradient program was as follows: 4%–8% solvent B over 2 min, 8%–28% solvent B over 43 min, 28%–40% solvent B over 10 min, 40%–95% solvent B over 1 min, and 95% solvent B for 10 min. The following mass spectrometry parameters were used: spray voltage, 2.2 kV; capillary temperature, 270°C; MS resolution, 70,000 at 400 m/z; MS precursor m/z range, 300.0–1800.0 m/z; activation type, high‐energy collision dissociation; normalized collision energy, 28.0; activation time, […]; and data‐dependent MS/MS, top 20 most intense peptide ions selected based on the preview scan in the Orbitrap.\nThe raw MS files (Figure S5) were analyzed and searched against species‐specific protein databases using MaxQuant (v1.6.2.10). The following parameters were applied: maximum missed cleavages, 2; precursor ion mass tolerance, 20 ppm; and MS/MS tolerance, 20 ppm. Peptides and proteins were filtered to achieve a false discovery rate of < 1% using a target‐decoy database strategy, and only proteins with at least two unique peptides were reported. […] SAINT is a probabilistic method for scoring protein–protein interactions in AP‐MS experiments, enabling the identification of proteins most likely to interact with target proteins. […]"}, "Aβ oligomers in AD brain": {"tested_on": "Aβ oligomers in AD brain", "test": "IHC colocalization with Aβ oligomers in AD brain sections", "design": "species or system human", "details": "AD7–AD10, n = 4; fluorescence scan over 120 µm", "from_the_text": "To further validate the binding interactions between Aβ oligomers and the four proteins, we performed immunohistochemistry (IHC) on brain sections from four AD patients (AD7–AD10). We analyzed the colocalization of Aβ oligomers (red) with DDX6, JUP, HRNR, and DSP (all green), as well as 4',6‐diamidino‐2‐phenylindole (DAPI)‐stained nuclei (blue). […] We also performed fluorescence intensity scanning from left to right across stained brain tissue slices (120 µm). […] The combined results from co‐IP and IHC confirm that these four proteins can bind to Aβ oligomers.\nSections were dewaxed, subjected to antigen retrieval, and blocked. They were then incubated with primary antibody (1:500) overnight at 4°C, followed by secondary antibody (1:200). Nuclei were stained with DAPI (Beyotime; C1002, Shanghai, China) for 10 min in the dark."}, "AD patients": {"tested_on": "AD patients", "details": "cited from earlier work"}}, "note": "Entries after “also recorded” stand apart in the source; their conditions may differ."}
{"molecule": "DYCLKRELLMGIFEMGWE [34–45]", "values": [{"measurement": "interaction with Aβ42 oligomers", "setting": "Aβ42 oligomers [1]", "value": "all four binding peptides interacted with Aβ oligomers"}]}
{"molecule": "GIDIQAVNVVINFDF [compound 133]", "values": [{"measurement": "gray value of spot on peptide array", "setting": "Aβ42 oligomers [2]", "value": "exceeding 30%"}, {"measurement": "interaction with Aβ42 oligomers", "setting": "Aβ42 oligomers [1]", "value": "all four binding peptides interacted with Aβ oligomers"}]}
{"molecule": "GKSGAYLIPLLERLD [compound 49]", "values": [{"measurement": "gray value of spot on peptide array", "setting": "Aβ42 oligomers [2]", "value": "exceeding 30%"}, {"measurement": "interaction with Aβ42 oligomers", "setting": "Aβ42 oligomers [1]", "value": "all four binding peptides interacted with Aβ oligomers"}]}
{"molecule": "IKPIPSNIDKSLYVAEYHSEPVED [153–156]", "values": [{"measurement": "gray value of spot on peptide array", "setting": "Aβ42 oligomers [2]", "value": "exceeding 30%"}, {"measurement": "interaction with Aβ42 oligomers", "setting": "Aβ42 oligomers [1]", "value": "all four binding peptides interacted with Aβ oligomers"}]}
{"molecule": "KPYEINLMEELTLKG [control peptide, reference compound]", "values": [{"measurement": "interaction with Aβ42 oligomers", "setting": "Aβ42 oligomers [1]", "value": "did not interact with Aβ oligomers"}]}
{"molecule": "desmoplakin [DSP]", "values": [{"measurement": "binding to Aβ oligomers by co‐IP", "setting": "[3]", "value": "DDX6 and DSP were also detected in Aβ oligomer co‐IP extracts; also recorded: DSP was detected in the co-IP products of Aβ oligomers"}, {"measurement": "SAINT score", "setting": "[4]", "value": 0.6608}, {"measurement": "colocalization with Aβ oligomers", "setting": "Aβ oligomers in AD brain", "value": "strong colocalization"}]}
{"molecule": "hornerin [HRNR]", "values": [{"measurement": "SAINT score", "setting": "[4]", "value": 0.5246}, {"measurement": "colocalization with Aβ oligomers", "setting": "Aβ oligomers in AD brain", "value": "strong colocalization"}]}
{"molecule": "solanezumab [reference compound]", "values": [{"measurement": "efficacy in clinical trials (in words)", "setting": "AD patients; ref [11], [12], [13], [14]", "value": "failed to demonstrate efficacy in improving cognitive function during key clinical trials"}]}
{"molecule": "tau: tau proteins were used as negative controls [reference compound]", "values": [{"measurement": "binding to Aβ oligomers by co‐IP", "setting": "[3]", "value": "No apparent binding was observed; also recorded: tau was not detected in the co-IP products of Aβ oligomers"}]}
{"molecule": "B1", "values": [{"measurement": "brain shrinkage, share of AD patients", "setting": "AD patients; after 18 months of treatment, ref [16]", "value": "approximately 28%"}, {"measurement": "brain hemorrhage", "setting": "AD patients; early AD patients, ref [15]", "value": 17.3, "unit": "%"}, {"measurement": "edema or effusion", "setting": "AD patients; early AD patients, ref [15]", "value": 12.6, "unit": "%"}, {"measurement": "headaches", "setting": "AD patients; early AD patients, ref [15]", "value": 11.1, "unit": "%"}, {"measurement": "delay of cognitive decline", "setting": "AD patients; early‐stage AD patients, ref [15]", "value": 27, "unit": "%"}, {"measurement": "severe side effects (in words)", "setting": "AD patients; some patients, ref [15], [16]", "value": "severe side effects, including brain hemorrhage, brain shrinkage, and even death"}]}
{"molecule": "B2", "values": [{"measurement": "SAINT score", "setting": "[4]", "value": 0.5846}, {"measurement": "colocalization with Aβ oligomers", "setting": "Aβ oligomers in AD brain", "value": "strong colocalization"}]}
